Experimental data as given in patent publication US20040180961A1, “Compositions and preparation methods for bioavailable oral aceclofenac dosage forms” (priority 2001, published 2004).

Assay: Dissolution of aceclofenac in pure artificial gastric juice (paddle method)
Format: physicochemical
Experimental: The pharmaceutical preparation containing acelcofenac was completely dissolved in 500 ml of an ethanol solution containing phosphate buffer (pH 6.8) at a volume ratio of 50%, where a preparation further containing substances of low solubility was shaken for 10 min. The resultant solution was centrifuged at 15,000 rpm for 2 min, and then filtered with a 0.45 μm membrane filter. After properly diluting 1 ml of the filtered solution, sample was used in quantification of aceclofenac, using HPLC. In a analysis of aceclofenac, a column was C18 ODS column (4.6×150 mm, 5 μm), an absorbance was at a wave length of 282 nm, a mobile phase was a mixture of MeOH:0.02 M KH2PO4 (65:35), a flow rate was 1 ml/min. 20 μl of sample was injected. Quantification of aceclofenac was accomplished with width ratio of aceclofenac and internal standard (Ethyl paraben).
Dissolution rate of acelcofenac contained in the pharmaceutical preparation was analyzed according to the dissolution test method disclosed in a guidebook “Korea Pharmacopeia (7th revision)”. A NaCl—HCl buffer solution (pH 1.4±0.1) was used as artificial gastric juice, supplemented with Tween 80 in a volume ratio of 0.3% according to intended use. 0.02 M phosphate-buffered solution (pH 6.8±0.1) was used as an artificial intestinal juice. Dissolution was performed according to the paddle method at a stirring rate of 50 rpm and a dissolution temperature of 37±0.5° C., using 500 ml of dissolution solution. […] The collected sample was centrifuged at 15,000 rpm for 2 min and filtered using a 0.45 μm membrane filter. Quantification of aceclofenac was accomplished by using HPLC. In analyzing the dissolution rate of aceclofenac, column was C18 ODS column (4.6×150 mm, 5 μm), absorbance was a wave length of 282 nm, a mobile phase was a mixture of MeOH:0.02 M KH2PO4 (65:35), and a flow rate was 1 ml/min. 20 μl of sample was injected. Quantification of aceclofenac was accomplished with width ratio of aceclofenac and internal standard (Ethyl paraben) Dissolution rate (%) of aceclofenac contained in the solid powder preparations, prepared in example, was measured according to Experimental 5. Content of aceclofenac obtained in Experimental Example 4 was used as 100% and dissolution rate of aceclofenac contained in the solid powder preparations prepared in example was given as a percentage. Dissolution concentration (μg/ml) and dissolution rate (%) of aceclofenac contained in solid powder preparation in artificial gastric juice were measured, the results are given in Tables 1 to 3, below, […]

SMILES: O=C(O)COC(=O)Cc1ccccc1Nc1c(Cl)cccc1Cl [Aceclofenac]
- Dissolution concentration (15 min): 0.075 µg/mL
- Dissolution rate (15 min): (0.04) %
- Dissolution concentration (30 min): 0.063 µg/mL
- Dissolution rate (30 min): (0.03) %
- Dissolution concentration (45 min): 0.088 µg/mL
- Dissolution rate (45 min): (0.05) %
- Dissolution concentration (60 min): 0.090 µg/mL
- Dissolution rate (60 min): (0.05) %
- Dissolution concentration (90 min): 0.236 µg/mL
- Dissolution rate (90 min): (0.12) %
